Results published in article PMC10487658, “Identification and Characterization of RK22, a Novel Antimicrobial Peptide from Hirudinaria manillensis against Methicillin Resistant Staphylococcus aureus” (International Journal of Molecular Sciences, 2023).
Where two headings read alike, the source gives them in different places. No end group written: not given here.

Experiments:
[1] = system: SA220823 (clinically isolated S. aureus); experiment: microbe, parasite or virus in culture; format: cell-based, Staphylococcus aureus; settings: SA220823 (clinically isolated)
Description: (§1) The bacterial strains used in this study included Pseudomonas aeruginosa (P. aeruginosa, ATCC27853), Acinetobacter baumannii (A. baumannii, ATCC19606), Escherichia coli (E. coli, ATCC8739), and S. aureus (ATCC6538, two clinically isolated strains (SA220823 and SA15772)), and three clinically isolated methicillin-resistant strains (MRSA-Z, MRSA11, and MRSA22). All strains were grown in Luria-Bertani (LB) broth.
(§2) The minimum inhibitory concentration (MIC) for all strains was determined using the […] assay based on a previous study with minor modifications. Initially, strains in the exponential phase were diluted to a concentration of 2 × 10^5 CFU/mL using RPMI 1640 medium (Corning, New York, NY, USA). Next, 100 μL of the bacterial suspension was mixed with 100 μL of the sample solution (final concentration 0–200 μg/mL in RPMI 1640 medium) in 96-well plates. The plates were then incubated at 37 °C for 12–16 h. After incubation, the absorbance at 600 nm was measured, and the MIC was determined as the lowest concentration of the test sample in which no bacterial growth was detected in the well.

[2] = system: SA15772 (clinically isolated S. aureus); experiment: microbe, parasite or virus in culture; format: cell-based, Staphylococcus aureus; settings: SA15772 (clinically isolated)
Description: as §1, §2

[3] = system: MRSA-Z (clinically isolated methicillin-resistant S. aureus); experiment: microbe, parasite or virus in culture; format: cell-based, Staphylococcus aureus; settings: -Z (clinically isolated methicillin-resistant)
Description: as §1, §2

[4] = system: MRSA22 (clinically isolated methicillin-resistant S. aureus); experiment: microbe, parasite or virus in culture; format: cell-based, Staphylococcus aureus; settings: MRSA22 (clinically isolated methicillin-resistant)
Description: as §1, §2

[5] = system: MRSA11 (clinically isolated methicillin-resistant S. aureus); experiment: microbe, parasite or virus in culture; format: cell-based, Staphylococcus aureus; settings: MRSA11 (clinically isolated methicillin-resistant)
Description: as §1, §2

S. aureus (ATCC6538) [6] = experiment: microbe, parasite or virus in culture; format: cell-based, Staphylococcus aureus
Description: as §1, §2

P. aeruginosa, ATCC9027 = format: cell-based, Pseudomonas aeruginosa; settings: P. aeruginosa ATCC9027 in Table 3; RPMI 1640, 37 °C, 12–16 h, absorbance at 600 nm
MRSA-Z = format: in vitro ADME, Staphylococcus aureus
Description: (§3) We determined the stability of RK22 in plasma according to the previously reported method. Briefly, an equal volume of RK22 was mixed with human plasma and diluted to a concentration of 5 mg/mL. The MICs of RK22 against S. aureus ATCC6538 and methicillin-resistant S. aureus MRSA-Z were determined after incubation at 37 °C for different times (0, 2, 4, 6, 8, and 10 h).

S. aureus (ATCC6538) [7] = format: in vitro ADME, Staphylococcus aureus
Description: as §3

HEK293T cells = experiment: Cytotoxicity assay (CCK8); format: cell-based; settings: up to 400 μg/mL, 24 h, CCK8, absorbance 450 nm, 3 independent experiments
Description: In the cytotoxicity assay, HEK293T cells were cultured with Dulbecco’s Modified Eagle Medium (DMEM) (Corning, New York, NY, USA) consisting of 10% fetal bovine serum (FBS, Corning, New York, NY, USA) and 1% penicillin-streptomycin liquid (Solarbio, Beijing, China). After digestion using trypsin (Gibco, New York, NY, USA), the cell suspension (100 μL, 1 × 10^5 cells/mL, […]) was inoculated into each well of a 96-well plate. Once the cells were completely adherent, the supernatant was discarded, and fresh medium with or without 100 μL of RK22 (final concentration 6.25–400 μg/mL) was added to the 96-well plates. […] The plate was then incubated at 37 °C for an additional 1–4 h, with absorbance then measured at 450 nm. […]
Figure S1. […] After incubation for 60 min at 37°C, cells were centrifuged (3,500 rpm, 5 min) and the absorbance of the supernatant was measured at 540 nm. The value for “zero hemolysis” was determined using sterile saline (negative control, NC), while 100% hemolysis was established using 1% (v/v) Triton X-100 (PC: positive control). Hemolysis of testing sample was calculated as the percentage of Triton X-100-induced hemolysis. […] Cell viability was determined by adding 10 μl CCK8 in to the cells and incubated for 1-4 h. The absorbance at 450 nm of the solution was measured with a microplate reader. […]

C57BL/6 mice = format: in vivo, mouse; settings: male C57BL/6 mice, 96 h; for survival: n = 8
Description: Male C57BL/6 mice (6–8 weeks of age) were randomly divided into three groups of eight mice per group. Either normal saline or RK22 (20 and 40 mg/kg) was injected intravenously via the tail vein. […] For histopathological analysis, sections of lung, liver, spleen, and kidney were fixed with 4% paraformaldehyde, embedded in paraffin wax, and stained with hematoxylin and eosin (H&E).
Figure S2. In vivo acute toxicity of RK22. Male C57BL/6 mice (6–8 weeks of age, n = 8 /group) were injected intravenously via the tail vein with saline or RK22 (20 and 40 mg/kg). Mice were observed for survival status within 96 h of the injection (A) and blood was collected via retro-orbital bleeding for routine blood analysis (B-E). The sections of lung, liver, spleen and kidney were stained […]
(1 picture or pasted object on this page, not shown here)

RKYKEKKDKSQNKKKKRKCMIL [RK22]
MIC [1]: 12.5 µg/mL | MIC [2]: 12.5 µg/mL | MIC [3]: 6.25 µg/mL | MIC [4]: 6.25 µg/mL | MIC [5]: 6.25 µg/mL | MIC (S. aureus (ATCC6538) [6]): 6.25 µg/mL | MIC (P. aeruginosa, ATCC9027): >100 µg/mL | MIC after incubation in plasma (MRSA-Z): 6.25 µg/mL | MIC after incubation in plasma (S. aureus (ATCC6538) [7]): 6.25 µg/mL | cytotoxicity (HEK293T cells): did not demonstrate any noticeable cytotoxic effects | hemoglobin (HGB) (C57BL/6 mice; 20 and 40 mg/kg iv): did not induce any changes | histopathological analysis (H&E) of lung, liver, spleen and kidney (C57BL/6 mice; 20 and 40 mg/kg iv): no obvious tissue injury | platelets (C57BL/6 mice; 20 and 40 mg/kg iv): did not induce any changes | red blood cells (C57BL/6 mice; 20 and 40 mg/kg iv): did not induce any changes | white blood cells (C57BL/6 mice; 20 and 40 mg/kg iv): did not induce any changes | survival (C57BL/6 mice; single dose 20 mg/kg intravenously via the tail vein): did not result in any fatalities | survival (C57BL/6 mice; single dose 40 mg/kg intravenously via the tail vein): did not result in any fatalities
